The target of test [1] is T1, Corticotropin-releasing factor receptor 2/Corticotropin-releasing factor-binding protein (Homo sapiens, UniProt P24387+Q13324).
T1 sequence (Q13324 whole entry): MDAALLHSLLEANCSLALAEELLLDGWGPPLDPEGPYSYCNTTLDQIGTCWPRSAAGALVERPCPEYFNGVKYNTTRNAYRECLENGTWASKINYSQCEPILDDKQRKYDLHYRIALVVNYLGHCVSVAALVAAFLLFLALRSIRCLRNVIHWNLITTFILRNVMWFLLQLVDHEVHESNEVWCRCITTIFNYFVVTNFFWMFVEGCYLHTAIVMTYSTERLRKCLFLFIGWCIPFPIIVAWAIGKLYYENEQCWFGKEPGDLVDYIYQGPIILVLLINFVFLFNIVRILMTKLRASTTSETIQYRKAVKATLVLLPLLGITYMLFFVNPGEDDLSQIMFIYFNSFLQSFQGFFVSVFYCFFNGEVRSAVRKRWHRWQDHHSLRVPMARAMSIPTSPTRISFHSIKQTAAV
T1 sequence (P24387 whole entry): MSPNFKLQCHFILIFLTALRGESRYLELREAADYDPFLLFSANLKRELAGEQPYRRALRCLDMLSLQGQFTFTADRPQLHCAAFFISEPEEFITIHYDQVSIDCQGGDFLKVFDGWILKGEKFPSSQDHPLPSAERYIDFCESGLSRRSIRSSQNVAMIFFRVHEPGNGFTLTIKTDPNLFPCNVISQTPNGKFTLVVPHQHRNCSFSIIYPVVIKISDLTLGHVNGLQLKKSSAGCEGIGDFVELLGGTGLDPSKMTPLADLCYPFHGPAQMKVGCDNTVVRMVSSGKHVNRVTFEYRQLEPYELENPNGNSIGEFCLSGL
Nature of the test: Dose Response confirmation of uHTS hits for small molecule antagonists of the CRF-binding protein and CRF-R2 receptor complex. Format: functional. Conditions: read-out: IC50_Mean.

In test [2] the target is T1, Corticotropin-releasing factor receptor 2/Corticotropin-releasing factor-binding protein. Nature of the test: activators of CRF receptor 2 with binding protein – uHTS hits, confirmation (AID 602473). Format: functional. Conditions: read-out: EC50_Mean.
Test [3] deals with Streptococcus sp. 'group A'. Nature of the test: growth inhibition of control SK(-) GAS strain, dose response, counter-screen for streptokinase expression inhibitor project, luminescence, kanamycin, BacTiterGlo, confirmation (AID 1900). Format: functional, organism-based. On the technique in general: The purpose of a counterscreen is to sort out artefacts and off-target activity.

A further test has as its target T2, Streptokinase A (Streptococcus pyogenes serotype M1, UniProt P10520).
T2 sequence (P10520 whole entry): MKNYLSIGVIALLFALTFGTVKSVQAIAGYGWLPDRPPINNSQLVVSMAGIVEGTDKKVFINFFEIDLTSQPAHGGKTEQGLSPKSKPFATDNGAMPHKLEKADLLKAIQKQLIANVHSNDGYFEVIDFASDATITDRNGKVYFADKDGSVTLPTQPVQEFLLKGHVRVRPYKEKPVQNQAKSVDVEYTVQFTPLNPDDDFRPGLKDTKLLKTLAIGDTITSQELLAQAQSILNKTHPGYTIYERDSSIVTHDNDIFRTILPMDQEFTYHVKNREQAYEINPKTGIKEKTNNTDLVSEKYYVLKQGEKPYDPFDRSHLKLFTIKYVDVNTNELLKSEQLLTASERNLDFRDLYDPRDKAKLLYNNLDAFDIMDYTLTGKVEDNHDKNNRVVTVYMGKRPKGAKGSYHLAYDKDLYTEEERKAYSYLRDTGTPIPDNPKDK
Nature of the test: S. pyogenes streptokinase expression inhibitors, potency, dose response, plasminogen activation absorbance, OD405 (AID 1914).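 Also: secreted streptokinase activity via plasminogen activation per viability signal from cell pellet.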 Type of test: functional, Streptococcus pyogenes M1 GAS.

The next test deals with Streptococcus. Nature of the test: Group A Streptococcus viability loss, dose response, counter-screen for streptokinase expression inhibitor project, luminescence, BacTiterGlo (AID 1915).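 Also: potency for reduction of bacterial viability or growth.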 Format: functional, organism-based.
Test [4] addresses T3, Fatty acid synthase (Homo sapiens, UniProt P49327). Nature of the test: FAS thioesterase domain inhibitors, dose response, biochemical, endpoint fluorescence intensity, uHTS hits (AID 624327).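 Also: fluorescence from hydrolysis of an O-methyl fluorescein acyl ester substrate by the enzyme.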 Type of test: functional.
The target of test [5] is T3, Fatty acid synthase. Nature of the test: FAS thioesterase domain inhibitors, dose response, biochemical, kinetic fluorescence intensity (AID 624326).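 Also: rate of fluorescence rise from hydrolysis of a fluorogenic O-methyl fluorescein ester substrate.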 Type of test: functional.
The next test deals with Large T antigen (Simian virus 40, UniProt P03070). Type of test: functional, Betapolyomavirus macacae.
Large T antigen, sequence (P03070 whole entry): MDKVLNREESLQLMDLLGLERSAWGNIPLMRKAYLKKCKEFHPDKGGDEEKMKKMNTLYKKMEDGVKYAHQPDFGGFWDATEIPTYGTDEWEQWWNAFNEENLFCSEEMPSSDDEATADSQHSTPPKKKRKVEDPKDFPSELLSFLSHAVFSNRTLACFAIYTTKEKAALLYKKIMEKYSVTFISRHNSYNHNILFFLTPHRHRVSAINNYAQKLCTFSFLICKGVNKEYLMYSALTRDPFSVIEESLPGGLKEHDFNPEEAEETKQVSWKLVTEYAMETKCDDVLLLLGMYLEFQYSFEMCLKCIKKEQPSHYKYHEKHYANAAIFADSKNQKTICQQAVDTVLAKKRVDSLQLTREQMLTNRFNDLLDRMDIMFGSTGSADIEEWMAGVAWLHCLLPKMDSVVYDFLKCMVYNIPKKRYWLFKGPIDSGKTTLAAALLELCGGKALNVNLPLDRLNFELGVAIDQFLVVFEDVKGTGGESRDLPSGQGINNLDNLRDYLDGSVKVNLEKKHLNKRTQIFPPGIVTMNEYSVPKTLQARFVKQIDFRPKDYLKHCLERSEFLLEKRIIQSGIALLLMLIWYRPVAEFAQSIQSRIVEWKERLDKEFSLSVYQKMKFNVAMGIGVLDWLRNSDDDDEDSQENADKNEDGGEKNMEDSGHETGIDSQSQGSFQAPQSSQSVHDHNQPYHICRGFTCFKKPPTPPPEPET
Another test concerns the target T4, Cytochrome P450 1A2 (Homo sapiens, UniProt P05177).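 Also: PubChem cytochrome P450 panel assay, CYP1A2 panel member.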
T4 sequence (P05177 whole entry): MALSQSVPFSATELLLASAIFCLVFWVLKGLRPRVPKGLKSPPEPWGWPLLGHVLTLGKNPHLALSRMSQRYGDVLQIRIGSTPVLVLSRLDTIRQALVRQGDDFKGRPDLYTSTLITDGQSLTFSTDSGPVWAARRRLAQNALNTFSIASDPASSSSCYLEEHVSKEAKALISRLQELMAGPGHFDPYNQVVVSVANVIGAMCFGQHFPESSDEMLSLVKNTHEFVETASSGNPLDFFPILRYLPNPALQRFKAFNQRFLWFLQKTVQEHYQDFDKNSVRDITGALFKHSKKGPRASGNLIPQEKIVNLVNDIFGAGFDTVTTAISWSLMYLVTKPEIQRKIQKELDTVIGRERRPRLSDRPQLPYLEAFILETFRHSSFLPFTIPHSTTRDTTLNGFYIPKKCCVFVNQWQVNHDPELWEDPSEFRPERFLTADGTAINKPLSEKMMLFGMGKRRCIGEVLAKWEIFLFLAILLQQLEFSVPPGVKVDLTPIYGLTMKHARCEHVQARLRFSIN

The target in the next test is Cytochrome P450 3A4 (Homo sapiens, UniProt P08684).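 Also: CYP3A4 tested as one member of a cytochrome P450 panel screen.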
Cytochrome P450 3A4, sequence (P08684 whole entry): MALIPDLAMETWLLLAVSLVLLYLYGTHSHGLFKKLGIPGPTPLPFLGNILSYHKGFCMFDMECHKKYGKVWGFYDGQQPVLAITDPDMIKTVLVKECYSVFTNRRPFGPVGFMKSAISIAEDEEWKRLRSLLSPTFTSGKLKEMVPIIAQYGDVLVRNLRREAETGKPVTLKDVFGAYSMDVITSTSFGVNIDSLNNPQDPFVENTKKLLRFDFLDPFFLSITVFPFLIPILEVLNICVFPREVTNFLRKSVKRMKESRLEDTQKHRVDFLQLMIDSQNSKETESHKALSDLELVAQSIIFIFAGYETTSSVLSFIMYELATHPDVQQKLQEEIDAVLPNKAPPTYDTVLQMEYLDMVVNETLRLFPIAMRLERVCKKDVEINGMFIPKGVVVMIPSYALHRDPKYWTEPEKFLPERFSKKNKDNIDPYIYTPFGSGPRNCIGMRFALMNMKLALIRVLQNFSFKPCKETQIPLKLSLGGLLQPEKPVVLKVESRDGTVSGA
Test [6] concerns the target T5, High affinity choline transporter 1 (Homo sapiens, UniProt Q9GZV3).
T5 sequence (Q9GZV3 whole entry): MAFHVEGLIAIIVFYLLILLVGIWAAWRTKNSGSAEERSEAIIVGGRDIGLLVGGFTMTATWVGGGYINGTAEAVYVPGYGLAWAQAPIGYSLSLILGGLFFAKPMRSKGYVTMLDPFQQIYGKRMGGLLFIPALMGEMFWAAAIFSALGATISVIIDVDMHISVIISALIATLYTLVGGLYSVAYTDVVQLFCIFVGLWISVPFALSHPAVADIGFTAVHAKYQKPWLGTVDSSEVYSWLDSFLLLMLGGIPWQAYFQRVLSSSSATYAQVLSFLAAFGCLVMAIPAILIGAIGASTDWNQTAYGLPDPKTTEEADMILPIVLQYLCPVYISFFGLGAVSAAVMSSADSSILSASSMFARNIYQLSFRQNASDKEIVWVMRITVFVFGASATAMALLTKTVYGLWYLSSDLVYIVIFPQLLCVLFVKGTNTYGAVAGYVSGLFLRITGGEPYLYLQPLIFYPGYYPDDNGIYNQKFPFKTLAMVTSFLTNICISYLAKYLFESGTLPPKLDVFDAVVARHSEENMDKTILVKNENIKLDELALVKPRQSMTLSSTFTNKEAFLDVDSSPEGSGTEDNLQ
Nature of the test: CHT inhibitors, dose response, cell-based, 5-point CRC, membrane potential dye (AID 504840). Type of test: functional.

A further test concerns the target Paired box protein Pax-8 (Homo sapiens, UniProt Q06710). Nature of the test: inhibitors of PAX8-driven TPO luciferase reporter, dose response, RMG-I cells, cherry-pick (AID 687027).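 Also: luciferase reporter driven by Pax8 target thyroperoxidase promoter measured by SteadyGlo luminescence.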 Format: functional, cell-based. Background: Reporter assays use an easily measured gene product as a stand-in for the process of interest.

Activity calls are given as the source filed them. A value given as a limit tells only on which side of the number the result lay.

Paired box protein Pax-8, sequence (Q06710 whole entry): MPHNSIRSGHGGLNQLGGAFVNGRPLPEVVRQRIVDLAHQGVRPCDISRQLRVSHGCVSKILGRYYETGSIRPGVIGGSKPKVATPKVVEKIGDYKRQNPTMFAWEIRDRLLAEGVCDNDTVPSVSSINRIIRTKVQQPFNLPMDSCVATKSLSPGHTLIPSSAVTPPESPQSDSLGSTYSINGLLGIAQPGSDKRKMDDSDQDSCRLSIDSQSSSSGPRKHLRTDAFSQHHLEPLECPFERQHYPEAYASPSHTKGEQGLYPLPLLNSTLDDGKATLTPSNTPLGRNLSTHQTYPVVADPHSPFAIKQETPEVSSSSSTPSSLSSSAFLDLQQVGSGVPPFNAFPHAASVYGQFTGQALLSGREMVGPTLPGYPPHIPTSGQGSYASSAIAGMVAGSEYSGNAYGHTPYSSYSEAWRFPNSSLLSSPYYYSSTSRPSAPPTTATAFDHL
T3 sequence (P49327 whole entry, the tested form may be a part): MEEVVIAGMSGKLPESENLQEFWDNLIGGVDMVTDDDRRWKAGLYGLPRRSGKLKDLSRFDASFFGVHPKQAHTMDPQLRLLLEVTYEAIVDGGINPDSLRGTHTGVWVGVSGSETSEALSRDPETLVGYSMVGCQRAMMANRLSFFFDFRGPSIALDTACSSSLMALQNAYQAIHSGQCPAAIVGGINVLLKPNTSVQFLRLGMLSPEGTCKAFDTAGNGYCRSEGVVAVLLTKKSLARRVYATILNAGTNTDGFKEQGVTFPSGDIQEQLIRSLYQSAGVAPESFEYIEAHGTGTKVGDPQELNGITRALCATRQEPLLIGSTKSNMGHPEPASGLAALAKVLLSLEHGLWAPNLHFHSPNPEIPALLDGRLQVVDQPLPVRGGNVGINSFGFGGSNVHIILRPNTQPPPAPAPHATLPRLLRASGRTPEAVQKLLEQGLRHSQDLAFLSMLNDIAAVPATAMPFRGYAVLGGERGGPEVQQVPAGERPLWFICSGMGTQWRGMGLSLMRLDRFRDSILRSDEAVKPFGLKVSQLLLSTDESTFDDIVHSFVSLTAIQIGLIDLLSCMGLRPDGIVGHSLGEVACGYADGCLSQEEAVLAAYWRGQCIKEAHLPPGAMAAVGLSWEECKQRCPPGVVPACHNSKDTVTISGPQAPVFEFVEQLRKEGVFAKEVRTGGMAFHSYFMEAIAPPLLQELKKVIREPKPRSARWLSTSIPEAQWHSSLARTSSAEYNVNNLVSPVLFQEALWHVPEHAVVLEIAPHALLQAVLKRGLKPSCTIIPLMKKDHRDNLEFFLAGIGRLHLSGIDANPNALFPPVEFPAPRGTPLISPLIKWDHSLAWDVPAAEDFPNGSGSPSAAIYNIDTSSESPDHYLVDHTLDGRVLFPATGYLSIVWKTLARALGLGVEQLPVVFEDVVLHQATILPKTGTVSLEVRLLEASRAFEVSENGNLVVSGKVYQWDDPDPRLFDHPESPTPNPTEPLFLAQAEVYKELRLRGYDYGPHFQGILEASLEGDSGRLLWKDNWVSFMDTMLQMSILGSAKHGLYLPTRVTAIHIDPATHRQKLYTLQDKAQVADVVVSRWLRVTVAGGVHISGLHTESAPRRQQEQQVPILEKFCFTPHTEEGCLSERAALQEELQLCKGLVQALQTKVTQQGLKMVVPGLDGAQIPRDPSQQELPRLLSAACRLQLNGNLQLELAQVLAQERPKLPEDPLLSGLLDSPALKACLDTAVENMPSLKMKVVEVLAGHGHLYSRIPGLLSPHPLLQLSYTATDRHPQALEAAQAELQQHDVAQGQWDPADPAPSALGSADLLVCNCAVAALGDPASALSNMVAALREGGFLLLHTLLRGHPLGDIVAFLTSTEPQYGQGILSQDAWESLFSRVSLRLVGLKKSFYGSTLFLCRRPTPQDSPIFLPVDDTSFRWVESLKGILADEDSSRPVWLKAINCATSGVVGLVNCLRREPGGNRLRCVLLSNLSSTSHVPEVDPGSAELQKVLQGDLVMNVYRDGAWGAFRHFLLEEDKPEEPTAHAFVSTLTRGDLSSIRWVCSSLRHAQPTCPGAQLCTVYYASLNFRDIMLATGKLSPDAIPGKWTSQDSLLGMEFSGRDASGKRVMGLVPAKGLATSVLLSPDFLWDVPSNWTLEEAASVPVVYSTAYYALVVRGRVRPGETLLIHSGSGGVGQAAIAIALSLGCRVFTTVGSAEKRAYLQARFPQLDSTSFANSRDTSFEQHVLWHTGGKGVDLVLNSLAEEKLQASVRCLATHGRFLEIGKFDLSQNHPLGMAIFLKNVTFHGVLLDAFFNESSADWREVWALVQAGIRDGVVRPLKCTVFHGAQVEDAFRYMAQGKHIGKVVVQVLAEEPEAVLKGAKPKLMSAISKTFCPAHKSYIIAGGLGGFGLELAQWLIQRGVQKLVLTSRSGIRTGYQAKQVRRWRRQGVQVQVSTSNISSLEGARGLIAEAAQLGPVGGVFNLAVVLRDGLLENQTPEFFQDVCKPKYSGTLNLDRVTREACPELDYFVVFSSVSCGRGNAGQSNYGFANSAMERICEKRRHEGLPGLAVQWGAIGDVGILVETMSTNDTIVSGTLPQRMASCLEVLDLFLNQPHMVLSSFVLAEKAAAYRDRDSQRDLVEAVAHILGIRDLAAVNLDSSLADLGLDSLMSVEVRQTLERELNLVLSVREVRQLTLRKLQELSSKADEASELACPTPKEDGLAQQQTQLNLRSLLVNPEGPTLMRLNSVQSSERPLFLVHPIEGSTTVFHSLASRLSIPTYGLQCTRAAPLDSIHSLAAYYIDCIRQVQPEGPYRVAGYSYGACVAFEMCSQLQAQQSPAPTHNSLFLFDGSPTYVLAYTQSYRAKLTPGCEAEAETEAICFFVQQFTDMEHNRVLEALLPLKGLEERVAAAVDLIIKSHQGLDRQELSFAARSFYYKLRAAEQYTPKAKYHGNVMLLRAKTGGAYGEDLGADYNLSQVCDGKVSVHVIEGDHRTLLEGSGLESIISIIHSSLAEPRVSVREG

Take `CCCC(=O)NC(C)c1nc2ccccc2[nH]1` (configuration not stated): the IC50 in test [1] was > 47.1 µM (inactive). Further, the EC50 in test [2] is > 53 µM (inactive).
Consider `Cc1cc(C)n(CCC(=O)N=Nc2c(O)[nH]c3ccc(Br)cc23)n1`, for which, in [1], the IC50 is > 47.1 µM (inactive). Also, in [2], the EC50 is > 53 µM (inactive).
With `O=C(COc1cccc(Oc2ccccc2)c1)Nc1ccc(SC(F)F)cc1`, the EC50 in test [3] was 14.4 µM (active); on Streptokinase A it was 17.5 µM (active); with Streptococcus, > 150 µM (not active). Also, the results for the IC50 on Fatty acid synthase [4] and on Fatty acid synthase [5] were 4.12 µM (active) and 2.43 µM (active), respectively.
Consider `CCOc1ccc(CCNC(=O)c2cccc(NC3=NC4CS(=O)(=O)CC4S3)c2)cc1OCC` (configuration not stated), for which the IC50 in test [1] was > 47.1 µM (inactive). The EC50 in [2] is > 53 µM (inactive).
With `COc1cc(OC)cc(C(=O)Nc2nc(CC(=O)NCc3ccccc3OC)cs2)c1`, the EC50 (in test [3]; at Streptokinase A; in the test with Streptococcus) was > 150 µM (not active) in each case.
On to `C=CCN=C(S)Nc1ccc(N(C)C)cc1`, for which, on Large T antigen, the IC50 is 3.24 µM (active).
`CSCC[C@H](NC(=O)c1nn(C)c(=O)c2ccccc12)c1nc2ccccc2[nH]1`: the EC50 in test [3] was 1.06 µM (active); on Streptokinase A, > 150 µM (not active); with Streptococcus it was 19.8 µM (active). For the same molecule, the AC50 on Cytochrome P450 1A2 is 17.8 µM (inconclusive); on Cytochrome P450 3A4, 12.6 µM (inconclusive).
As to `O=C(Nc1cccc([N+](=O)[O-])c1)NC1CCCCCCC1`, the IC50 at Fatty acid synthase [4] was 14.8 µM (active); on Fatty acid synthase [5], 15.2 µM (active).
With `CC1CN(Cc2nc3c(c(=O)[nH]c(=O)n3C)n2CCCc2ccccc2)CC(C)O1` (configuration not stated), the EC50 (in test [3]; on Streptokinase A; in the test with Streptococcus) was > 150 µM (not active) throughout.
On to `COc1cc(N(C)C)c([N+](=O)[O-])cc1C(=O)NC(C)CNc1ccc([N+](=O)[O-])cc1Cl` (configuration not stated), for which the IC50 on Fatty acid synthase [4] is 6.26 µM (active); on Fatty acid synthase [5] it was 5.79 µM (active).
Regarding `CSCC[C@H](NC(=O)c1ccc(Cl)c([N+](=O)[O-])c1)c1nc2ccccc2[nH]1`, the IC50 is 11.1 µM (active) on Fatty acid synthase [4] and 6.14 µM (active) on Fatty acid synthase [5].
With `COc1cc(CNc2ccc(N3CCCCC3)cc2)ccc1OCC(=O)NC(C)(C)C`, the IC50 is 12.5 µM (active) on Large T antigen and 6.55 µM (active) in test [6].
As for `O=C1NC(=S)S/C1=C/c1ccc(N2CCOCC2)o1`, on Large T antigen, the IC50 is 18.4 µM (active).
For `Cc1cccc2c(CCNC(=O)c3ccc([N+](=O)[O-])cc3)c[nH]c12`, the IC50 in test [1] was > 47.1 µM (inactive). In addition, in test [2], the EC50 is > 53 µM (inactive).
Taken in the same sequence, the figures for `CN1CC(=O)N(CC(=O)N2CCC(Cc3ccccc3)CC2)C1=O` were > 47.1 µM (inactive) and > 53 µM (inactive).
In the case of `COc1ccc(N2CCN(C(=O)c3cc(C)oc3C)CC2)cc1`, the EC50 (in test [3]; at Streptokinase A; in the test with Streptococcus) was > 150 µM (not active) throughout.
On to `CCOC(=O)c1ccc(NC(=O)CN2C(=O)CSC2=O)cc1`, for which the IC50 in test [1] is > 47.1 µM (inactive). Besides, the EC50 in [2] was > 53 µM (inactive).
Consider `CCn1c(SCC(=O)Nc2ccc(N(C)C)cc2)nnc1C1CC1`, for which the IC50 on Large T antigen was 9.49 µM (active).
In the case of `CC(C)c1ccc(CSc2ccc(S(=O)(=O)N3CCOCC3)cn2)cc1`, the IC50 on Fatty acid synthase [4] was 5.98 µM (active); at Fatty acid synthase [5] it was 7.91 µM (active).
Taken in the same sequence, the figures for `CCc1ccc(C(=O)COC(=O)c2cc([N+](=O)[O-])ccc2N2CCOCC2)cc1` were 1.75 µM (active) and 2.16 µM (active).
In the case of `C[C@@H]1CN([C@@H](C)CO)C(=O)Cc2cc(NC(=O)CCC(F)(F)F)ccc2O[C@H]1CN(C)Cc1ccc(-c2ccccc2)cc1`, at Paired box protein Pax-8, the AC50 was 8.61 µM (active).
Same read-out and setting: next, `Cc1ccc(S(=O)(=O)N(C)C[C@@H]2Oc3c(NC(=O)c4ccc(-c5nccs5)cc4)cccc3C(=O)N([C@@H](C)CO)C[C@@H]2C)cc1`: 18.3 µM (active); `CC(=NNc1cc(C)c2ccccc2n1)c1ccccn1`: 7.4 µM (active).
Take `CC(C)C(=O)c1ccc(O)c(O)c1`: the IC50 at Large T antigen was 30.9 µM (active).
Regarding `COc1ccc(S(=O)(=O)Nc2nc3ccccc3nc2NCc2ccc3c(c2)OCO3)cc1`, the IC50 in [1] is > 47.1 µM (inactive). Moreover, the EC50 in test [2] was > 53 µM (inactive).

For orientation: AC50 means the concentration at which the activity in the assay is half-maximal.
